According to patent US6376426B1, “Herbicidal 3-(heterocycl-1-yl)-uracils” (BASF Aktiengesellschaft, priority 1999, dated 2002):

Key:
Assay type in all cases: in vivo
Glycine max = assay: Pre-emergence herbicidal test, GLXMA; design: key to herbicidal effect (0-9 scale) GLXMA / herbicidal rating GLXMA: A rating 0 indicates growth as untreated control; a rating 9 indicates death; conditions: for herbicidal rating GLXMA: PRE, 0-9 scale, 21 days after spraying
Procedure: (§1) To evaluate their herbicidal activity, compounds according to the invention are tested using a representative range of plants:
(§2) The pre-emergence tests involve spraying a liquid formulation of the compound onto the soil in which the seeds of the plant species mentioned above has recently been sown.
(§3) The soil used in the tests is a prepared horticultural loam. The formulations used in the tests are prepared from solutions of the test compounds in acetone containing 0.4% by weight of an alkylphenol/ethylene oxide condensate available under the trade mark TRITON X-155. […] In these tests untreated sown soil are used as controls.
(§4) The herbicidal effects of the test compounds are assessed visually twenty-one days after spraying the foliage and the soil and are recorded on a 0-9 scale. A rating 0 indicates growth as untreated control, a rating 9 indicates death. An increase of 1 unit on the linear scale approximates to a 10% increase in the level of effect.

Alopecurus myosuroides [1] = assay: Pre-emergence herbicidal test, ALOMY; design: key to herbicidal effect (0-9 scale) ALOMY / herbicidal rating ALOMY: A rating 0 indicates growth as untreated control; a rating 9 indicates death; conditions: PRE, 0-9 scale, 21 days after spraying
Ipomoea hederacea = assay: Pre-emergence herbicidal test, IPOHE; design: key: A rating 0 indicates growth as untreated control; a rating 9 indicates death; conditions: 0-9 scale, 21 days after spraying
Abutilon theophrasti = assay: Pre-emergence herbicidal test, ABUTH; design: key to herbicidal effect (0-9 scale) ABUTH / herbicidal rating ABUTH: A rating 0 indicates growth as untreated control; a rating 9 indicates death; conditions: for herbicidal rating ABUTH: PRE, 0-9 scale, 21 days after spraying
Stellaria media = assay: Pre-emergence herbicidal test, STEME; design: key to herbicidal effect (0-9 scale) STEME / herbicidal rating STEME: A rating 0 indicates growth as untreated control; a rating 9 indicates death; conditions: for herbicidal rating STEME: PRE, 0-9 scale, 21 days after spraying
Alopecurus myosuroides [2] = assay: Post-emergence herbicidal test, ALOMY; design: key: A rating 0 indicates growth as untreated control; a rating 9 indicates death; conditions: 0-9 scale, 21 days after spraying
Procedure, shortened: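 Compounds in acetone solution were diluted with water and sprayed post-emergence onto foliage and soil at about 1000, 800, 400, 250 or 100 g/ha. Plants were kept on greenhouse benches under conventional care.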

[3] = tested on: representative range of plants; assay: Pre-emergence herbicidal test, summary over the plants tested; conditions: 100 g/ha
Procedure: as §1, §2, §3, §4

## Cn1c(C(F)(F)F)cc(=O)n(-n2ccc3c(Cl)cccc32)c1=O [Example 169, 3-(4-Chloro-indol-1-yl)-1-methyl-6-trifluoromethylpyrimidine-2,4-dione]
Glycine max; 12.5 g/ha
  herbicidal rating GLXMA: 0
Glycine max; 25 g/ha
  herbicidal rating GLXMA: 0
Glycine max; 100 g/ha
  herbicidal rating GLXMA: 3
Glycine max; 400 g/ha
  herbicidal rating GLXMA: 5
Glycine max; pre-emergence, 25 g/ha
  selectivity in soy beans: Surprisingly good selectivity
Alopecurus myosuroides [1]; 12.5 g/ha
  herbicidal rating ALOMY: 2
Alopecurus myosuroides [1]; 25 g/ha
  herbicidal rating ALOMY: 5
Alopecurus myosuroides [1]; 100 g/ha
  herbicidal rating ALOMY: 7
Alopecurus myosuroides [1]; 400 g/ha
  herbicidal rating ALOMY: 9
Ipomoea hederacea; 12.5 g/ha
  herbicidal rating IPOHE: 2
Ipomoea hederacea; 25 g/ha
  herbicidal rating IPOHE: 4
Ipomoea hederacea; 100 g/ha
  herbicidal rating IPOHE: 8
Ipomoea hederacea; 400 g/ha
  herbicidal rating IPOHE: 9
Abutilon theophrasti; 12.5 g/ha
  herbicidal rating ABUTH: 5
Abutilon theophrasti; 25 g/ha
  herbicidal rating ABUTH: 9
Abutilon theophrasti; 100 g/ha
  herbicidal rating ABUTH: 9
Abutilon theophrasti; 400 g/ha
  herbicidal rating ABUTH: 9
Abutilon theophrasti; pre-emergence, 25 g/ha
  control of Abutilon: good control
Stellaria media; 12.5 g/ha
  herbicidal rating STEME: 6
Stellaria media; 25 g/ha
  herbicidal rating STEME: 8
Stellaria media; 100 g/ha
  herbicidal rating STEME: 9
Stellaria media; 400 g/ha
  herbicidal rating STEME: 9
Stellaria media; pre-emergence, 25 g/ha
  control of Stellaria: good control
Alopecurus myosuroides [2]; 25 g/ha
  herbicidal rating ALOMY: 2
Alopecurus myosuroides [2]; 100 g/ha
  herbicidal rating ALOMY: 6
Alopecurus myosuroides [2]; 400 g/ha
  herbicidal rating ALOMY: 9
[3]
  control of the weeds: all of the weeds except Alopecurus were well controlled
